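Results reflect a 48-hour exposure of cells in 96-well plates to compound at five concentrations. GI50 is the concentration that inhibits growth by half.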 Active and inactive are the calls of the source. No stated cut-off is given here; in the data, active = GI50 up to about 1.1 µM and inactive = higher.
Tests used:
Assay in all cases: NCI anticancer screen, dose series, 48 h
[1] = test system: IGROV-1
[2] = test system: U-251
[3] = test system: OVCAR-3
[4] = test system: SK-OV-3
[5] = test system: Hs-578T
[6] = test system: KM12
[7] = test system: MOLT-4
[8] = test system: CCRF-CEM
[9] = test system: SF-268
[10] = test system: SNB-19
[11] = test system: ACHN
[12] = test system: A498
[13] = test system: UO-31
[14] = test system: UACC-257
[15] = test system: A549
[16] = test system: MDA-MB-231
[17] = test system: UACC-62
[18] = test system: RXF 393
[19] = test system: HT-29
[20] = test system: SK-MEL-2
[21] = test system: PC-3
[22] = test system: HCC 2998
[23] = test system: SN12C
[24] = test system: NCI-H460
[25] = test system: NCI-H522
[26] = test system: T47D
[27] = test system: MDA-N
[28] = test system: COLO 205
[29] = test system: M14
[30] = test system: HOP-92
[31] = test system: HOP-62
[32] = test system: MCF7
[33] = test system: NCI/ADR-RES
[34] = test system: RPMI-8226
[35] = test system: EKVX
[36] = test system: NCI-H226
[37] = test system: MDA-MB-435
[38] = test system: SNB-75
[39] = test system: HCT-15
[40] = test system: DU-145
[41] = test system: Malme-3M
[42] = test system: SF-295
[43] = test system: CAKI-1
[44] = test system: OVCAR-8
[45] = test system: K562
[46] = test system: SW-620
[47] = test system: BT-549
[48] = test system: OVCAR-5
[49] = test system: SF-539
[50] = test system: NCI-H23
[51] = test system: HL-60
[52] = test system: SK-MEL-5
[53] = test system: 786-0
[54] = test system: OVCAR-4
[55] = test system: TK-10
[56] = test system: LOX IMVI
[57] = test system: SK-MEL-28
[58] = test system: SR
[59] = test system: HCT-116

## O=S(=O)(O)c1c(Cl)c(Cl)c(O)c2ncccc12
[1]
  GI50: 4.2 µM (inactive)
[2]
  GI50: 10.8 µM (inactive)
[3]
  GI50: 10.7 µM (inactive)
[4]
  GI50: 13 µM (inactive)
[5]
  GI50: 20.2 µM (inactive)
[6]
  GI50: 10.8 µM (inactive)
[7]
  GI50: 3.33 µM (inactive)
[8]
  GI50: 4.01 µM (inactive)
[9]
  GI50: 3.79 µM (inactive)
[10]
  GI50: 11.8 µM (inactive)
[11]
  GI50: 7.33 µM (inactive)
[12]
  GI50: 1 µM (active)
[13]
  GI50: 7.08 µM (inactive)
[14]
  GI50: 14.9 µM (inactive)
[15]
  GI50: 12.4 µM (inactive)
[16]
  GI50: 27.7 µM (inactive)
[17]
  GI50: 8.34 µM (inactive)
[18]
  GI50: 19.3 µM (inactive)
[19]
  GI50: 9.89 µM (inactive)
[20]
  GI50: 12.5 µM (inactive)
[21]
  GI50: 10.8 µM (inactive)
[22]
  GI50: 13.5 µM (inactive)
[23]
  GI50: 14 µM (inactive)
[24]
  GI50: 7.36 µM (inactive)
[25]
  GI50: 4.12 µM (inactive)
[26]
  GI50: 7.08 µM (inactive)
[27]
  GI50: 14.6 µM (inactive)
[28]
  GI50: 9.95 µM (inactive)
[29]
  GI50: 12 µM (inactive)
[30]
  GI50: 18.8 µM (inactive)
[31]
  GI50: 5 µM (inactive)
[32]
  GI50: 5.04 µM (inactive)
[33]
  GI50: 5.05 µM (inactive)
[34]
  GI50: 10.6 µM (inactive)
[35]
  GI50: 12.2 µM (inactive)
[36]
  GI50: 20.9 µM (inactive)
[37]
  GI50: 9.4 µM (inactive)
[38]
  GI50: 14.3 µM (inactive)
[39]
  GI50: 5.33 µM
[40]
  GI50: 16.6 µM (inactive)
[41]
  GI50: 10.4 µM (inactive)
[42]
  GI50: 7.06 µM (inactive)
[43]
  GI50: 18.6 µM (inactive)
[44]
  GI50: 10.3 µM (inactive)
[45]
  GI50: 7.57 µM (inactive)
[46]
  GI50: 10 µM (inactive)
[47]
  GI50: 20.2 µM (inactive)
[48]
  GI50: 16.7 µM (inactive)
[49]
  GI50: 16 µM (inactive)
[50]
  GI50: 11.2 µM (inactive)
[51]
  GI50: 1.87 µM (inactive)
[52]
  GI50: 9.68 µM (inactive)
[53]
  GI50: 8.02 µM (inactive)
[54]
  GI50: 8.99 µM (inactive)
[55]
  GI50: 12.5 µM (inactive)
[56]
  GI50: 2.19 µM (inactive)
[57]
  GI50: 13 µM (inactive)
[58]
  GI50: 6.3 µM (inactive)
[59]
  GI50: 5.56 µM (inactive)

## CCOC(=O)/C1=C(\C)N(Cc2ccccc2)C(=O)c2ccccc2C(=O)c2c(O)ccc(O)c21
[1]
  GI50: 34.7 µM (inactive)
[2]
  GI50: > 100 µM (inactive)
[3]
  GI50: > 100 µM (inactive)
[4]
  GI50: > 100 µM (inactive)
[5]
  GI50: > 100 µM (inactive)
[6]
  GI50: > 100 µM (inactive)
[7]
  GI50: > 100 µM (inactive)
[8]
  GI50: > 100 µM (inactive)
[9]
  GI50: > 100 µM (inactive)
[10]
  GI50: > 100 µM (inactive)
[11]
  GI50: > 100 µM (inactive)
[12]
  GI50: > 100 µM (inactive)
[13]
  GI50: > 100 µM (inactive)
[14]
  GI50: > 100 µM (inactive)
[15]
  GI50: > 100 µM (inactive)
[16]
  GI50: > 100 µM (inactive)
[17]
  GI50: > 100 µM (inactive)
[18]
  GI50: 17.5 µM (inactive)
[19]
  GI50: > 100 µM (inactive)
[20]
  GI50: > 100 µM (inactive)
[21]
  GI50: > 100 µM (inactive)
[22]
  GI50: > 100 µM (inactive)
[23]
  GI50: > 100 µM (inactive)
[24]
  GI50: > 100 µM (inactive)
[25]
  GI50: 24.1 µM (inactive)
[26]
  GI50: > 100 µM (inactive)
[27]
  GI50: > 100 µM (inactive)
[28]
  GI50: > 100 µM (inactive)
[29]
  GI50: > 100 µM (inactive)
[30]
  GI50: 48.4 µM (inactive)
[31]
  GI50: > 100 µM (inactive)
[32]
  GI50: < 0.01 µM (active)
[33]
  GI50: > 100 µM (inactive)
[34]
  GI50: 66.7 µM (inactive)
[35]
  GI50: 80.7 µM (inactive)
[36]
  GI50: > 100 µM (inactive)
[37]
  GI50: > 100 µM (inactive)
[38]
  GI50: > 100 µM (inactive)
[39]
  GI50: > 100 µM
[40]
  GI50: > 100 µM (inactive)
[41]
  GI50: > 100 µM (inactive)
[42]
  GI50: > 100 µM (inactive)
[43]
  GI50: > 100 µM (inactive)
[44]
  GI50: > 100 µM (inactive)
[45]
  GI50: > 100 µM (inactive)
[46]
  GI50: > 100 µM (inactive)
[47]
  GI50: < 0.01 µM (active)
[48]
  GI50: > 100 µM (inactive)
[49]
  GI50: > 100 µM (inactive)
[50]
  GI50: > 100 µM (inactive)
[51]
  GI50: > 100 µM (inactive)
[52]
  GI50: > 100 µM (inactive)
[53]
  GI50: > 100 µM (inactive)
[54]
  GI50: > 100 µM (inactive)
[55]
  GI50: > 100 µM (inactive)
[56]
  GI50: > 100 µM (inactive)
[57]
  GI50: > 100 µM (inactive)
[58]
  GI50: > 100 µM (inactive)
[59]
  GI50: > 100 µM (inactive)

## CNC(=O)N(CCC#N)CCN(C(=O)N(C)C)c1ccccc1
[1]
  GI50: > 100 µM (inactive)
[2]
  GI50: > 100 µM (inactive)
[3]
  GI50: > 100 µM (inactive)
[4]
  GI50: > 100 µM (inactive)
[5]
  GI50: > 100 µM (inactive)
[6]
  GI50: > 100 µM (inactive)
[7]
  GI50: > 100 µM (inactive)
[8]
  GI50: > 100 µM (inactive)
[9]
  GI50: > 100 µM (inactive)
[10]
  GI50: > 100 µM (inactive)
[11]
  GI50: > 100 µM (inactive)
[12]
  GI50: > 100 µM (inactive)
[13]
  GI50: > 100 µM (inactive)
[14]
  GI50: > 100 µM (inactive)
[15]
  GI50: > 100 µM (inactive)
[16]
  GI50: > 100 µM (inactive)
[17]
  GI50: > 100 µM (inactive)
[18]
  GI50: > 100 µM (inactive)
[19]
  GI50: > 100 µM (inactive)
[20]
  GI50: > 100 µM (inactive)
[21]
  GI50: > 100 µM (inactive)
[22]
  GI50: > 100 µM (inactive)
[23]
  GI50: > 100 µM (inactive)
[24]
  GI50: > 100 µM (inactive)
[25]
  GI50: > 100 µM (inactive)
[26]
  GI50: > 100 µM (inactive)
[27]
  GI50: > 100 µM (inactive)
[28]
  GI50: > 100 µM (inactive)
[29]
  GI50: > 100 µM (inactive)
[30]
  GI50: > 100 µM (inactive)
[31]
  GI50: > 100 µM (inactive)
[32]
  GI50: > 100 µM (inactive)
[33]
  GI50: > 100 µM (inactive)
[34]
  GI50: > 100 µM (inactive)
[35]
  GI50: > 100 µM (inactive)
[36]
  GI50: > 100 µM (inactive)
[37]
  GI50: > 100 µM (inactive)
[38]
  GI50: > 100 µM (inactive)
[39]
  GI50: > 100 µM
[40]
  GI50: > 100 µM (inactive)
[41]
  GI50: > 100 µM (inactive)
[42]
  GI50: > 100 µM (inactive)
[43]
  GI50: > 100 µM (inactive)
[44]
  GI50: > 100 µM (inactive)
[45]
  GI50: > 100 µM (inactive)
[46]
  GI50: > 100 µM (inactive)
[47]
  GI50: > 100 µM (inactive)
[48]
  GI50: > 100 µM (inactive)
[49]
  GI50: > 100 µM (inactive)
[50]
  GI50: > 100 µM (inactive)
[51]
  GI50: > 100 µM (inactive)
[52]
  GI50: > 100 µM (inactive)
[53]
  GI50: > 100 µM (inactive)
[54]
  GI50: > 100 µM (inactive)
[55]
  GI50: > 100 µM (inactive)
[56]
  GI50: > 100 µM (inactive)
[57]
  GI50: > 100 µM (inactive)
[58]
  GI50: > 100 µM (inactive)
[59]
  GI50: > 100 µM (inactive)

Reference: ChEMBL document CHEMBL1201862, “PubChem BioAssay data set” (2004)
